Data as given in the supplement of paper PMC10307832.

Key:
Assay in all cases: relative viability (nuclei count vs DMSO), 5 days (fraction); higher = more cells survive
[1] = compound: COC1=CC(c2cc3ccccc3[nH]2)=N/C1=C\c1[nH]c(C)cc1C [Obatoclax]
In short: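 MetaXpress counted nuclei in 4× images of lung cancer cell lines that had been fixed, permeabilised and Hoechst-stained in one step. Before that, cells in 1536-well plates were kept overnight at 37 °C, pinned with five √10-spaced library-drug doses on vehicle-anchored plates, and cultured 5 days without medium change. Viability takes treated-well nuclei over vehicle-well nuclei and uses the median across plates. Plates were accepted only at control CV below 25% and at least one doubling.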

[2] = compound: CC(C)C[C@H](NC(=O)[C@H](Cc1ccccc1)NC(=O)c1cnccn1)B(O)O [Bortezomib] + N=C(N)NC(=N)NCCc1ccccc1 [Phenformin] (partner 250 µM)
In short: (§1)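 Medians of duplicate plates are given as relative viability. That measure is the nuclei count in treated wells divided by the count in vehicle wells. Counts were taken on 4× images of lung cancer cell lines in 1536-well plates, 5 days after pin-tool dosing the day after seeding with one drug alone or a fixed anchor-drug dose plus five library-drug doses (not always all listed) in √10 steps.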

[3] = compound: CC1=CC(=NN1)NC2=CC(=NC(=N2)/C=C/C3=CC=CC=C3)N4CCN(CC4)C + CC(C)C[C@H](NC(=O)[C@H](Cc1ccccc1)NC(=O)c1cnccn1)B(O)O [Bortezomib] (partner 0.002 µM)
In short: as §1

[4] = compound: CC1=CC(=NN1)NC2=CC(=NC(=N2)/C=C/C3=CC=CC=C3)N4CCN(CC4)C + C[C@@H](Oc1cc(-c2cnn(C3CCNCC3)c2)cnc1N)c1c(Cl)ccc(F)c1Cl [Crizotinib] (partner 1 µM)
In short: as §1

Cell Line	relative viability ([1]; 0.01 µM)	relative viability ([1]; 0.03162 µM)	relative viability ([1]; 0.1 µM)	relative viability ([1]; 0.3162 µM)	relative viability ([1]; 1 µM)	relative viability ([2]; first compound 0.0002 µM)	relative viability ([2]; first compound 0.000632 µM)	relative viability ([2]; first compound 0.002 µM)	relative viability ([2]; first compound 0.006325 µM)	relative viability ([2]; first compound 0.02 µM)	relative viability ([3]; first compound 0.08 µM)	relative viability ([3]; first compound 0.253 µM)	relative viability ([3]; first compound 0.8 µM)	relative viability ([3]; first compound 2.53 µM)	relative viability ([3]; first compound 8 µM)	relative viability ([4]; first compound 0.08 µM)	relative viability ([4]; first compound 0.253 µM)	relative viability ([4]; first compound 0.8 µM)	relative viability ([4]; first compound 2.53 µM)	relative viability ([4]; first compound 8 µM)
NCI-H727	1.09	0.88	1.14	0.972	0.658	0.542	0.475	0.548	0.301	0.178	0.841	0.586	0.867	0.463	0.255	0.856	0.805	0.767	0.348	0.185
NCI-H1944	1.04	0.883	1.01	1.01	1.02	0.198	0.185	0.213	0.201	0.155	–	–	–	–	–	1.04	1.24	1.11	0.62	0.275
NCI-H1437	0.942	0.93	0.951	0.932	0.816	0.385	0.28	0.278	0.129	0.133	0.621	0.554	0.656	0.247	0.0909	0.773	0.922	0.898	0.999	0.225
NCI-H441	1.06	0.91	0.99	0.705	0.463	0.969	0.732	0.514	0.166	0.189	0.543	0.547	0.332	0.265	0.192	0.689	0.794	0.457	0.254	0.15
EMC-BAC-2	0.973	0.957	0.74	0.96	0.819	0.551	0.459	0.477	0.209	0.211	1.05	1.1	1.01	0.813	0.135	0.788	0.721	0.566	0.296	0.0972
NCI-H647	0.987	0.894	0.68	0.711	0.303	0.479	0.444	0.267	0.0466	0.0232	0.807	1.1	0.957	0.068	0.0571	1.19	1.06	0.683	0.0821	0.0474
CAL-12T	0.995	0.955	1	0.483	0.328	0.552	0.585	0.586	0.25	0.114	0.979	0.952	0.645	0.268	0.164	0.825	0.54	0.291	0.11	0.0934
NCI-H1792	0.985	0.795	–	0.92	0.7	0.534	–	0.173	0.0935	0.0823	0.863	0.999	0.919	0.84	0.0942	0.942	0.982	0.966	0.815	0.165
H3255	0.931	0.926	0.896	1	0.959	0.368	0.346	0.334	0.307	0.288	0.878	0.854	0.895	0.745	0.198	0.731	0.936	0.943	0.74	0.192
HCC-78	1.09	0.866	0.891	0.771	1.02	0.699	0.641	0.676	0.712	0.364	0.456	0.636	0.582	0.559	0.214	0.365	0.372	0.352	0.32	0.146
EBC-1	0.923	0.958	0.924	0.87	0.338	–	–	–	–	–	0.523	0.557	0.427	0.264	0.158	0.188	0.185	0.213	0.137	0.108
NCI-H2405	1.07	0.997	–	1.01	1.07	0.513	0.319	0.393	0.241	0.109	0.963	0.819	1.02	0.865	0.958	0.868	0.818	0.803	0.694	0.202
A549	0.987	0.942	0.92	0.922	0.575	0.154	0.231	0.18	0.0502	0.0365	–	–	–	–	–	0.873	0.537	0.257	0.112	0.0338
NCI-H3122	0.985	0.931	0.927	0.984	1.01	0.391	0.368	0.404	0.121	0.105	0.92	0.924	1.07	1.02	0.542	0.285	0.318	0.253	0.268	0.168
NCI-H1563	0.989	0.979	1.08	0.956	0.895	0.742	0.659	0.636	0.518	0.465	0.943	0.874	0.863	0.714	0.428	0.985	0.896	0.904	0.65	0.614
HCC-44	1.01	0.953	0.827	0.929	0.755	0.195	0.194	0.204	0.162	0.111	0.805	0.968	0.854	0.735	0.25	0.756	0.837	0.787	0.386	0.0992
PC-3 [JPC-3]	1.02	1.01	1.01	0.985	1.02	0.495	0.485	0.472	0.24	0.175	0.836	0.968	0.838	0.853	0.761	0.931	1	0.917	0.878	0.74
NCI-H1993	0.92	0.865	1.07	1.03	0.896	0.489	0.458	0.512	0.419	0.464	1.08	–	1.2	0.781	0.391	0.883	–	0.739	0.551	0.526
LOU-NH91	0.974	0.932	0.68	0.853	0.854	0.774	0.645	0.661	0.282	0.261	0.403	0.472	0.537	0.474	0.358	0.775	0.757	0.741	0.706	0.403

Cell Line	relative viability ([1]; 0.01 µM)	relative viability ([1]; 0.03162 µM)	relative viability ([1]; 0.1 µM)	relative viability ([1]; 0.3162 µM)	relative viability ([1]; 1 µM)	relative viability ([2]; first compound 0.0002 µM)	relative viability ([2]; first compound 0.000632 µM)	relative viability ([2]; first compound 0.002 µM)	relative viability ([2]; first compound 0.006325 µM)	relative viability ([2]; first compound 0.02 µM)	relative viability ([3]; first compound 0.08 µM)	relative viability ([3]; first compound 0.253 µM)	relative viability ([3]; first compound 0.8 µM)	relative viability ([3]; first compound 2.53 µM)	relative viability ([3]; first compound 8 µM)	relative viability ([4]; first compound 0.08 µM)	relative viability ([4]; first compound 0.253 µM)	relative viability ([4]; first compound 0.8 µM)	relative viability ([4]; first compound 2.53 µM)	relative viability ([4]; first compound 8 µM)
SK-MES-1	0.961	1	0.947	0.721	0.414	0.648	0.6	0.608	0.269	0.15	–	–	–	–	–	0.96	1.01	0.903	0.422	0.133
LCLC-103H	0.978	0.894	0.926	0.965	1.08	0.361	0.32	0.299	0.178	0.135	0.997	1.19	1.08	0.877	0.675	0.993	1.19	1.19	1.07	0.302
NCI-H1915	0.973	0.949	0.898	0.999	0.941	0.361	0.356	0.371	0.147	0.0571	1.01	1.04	1.01	0.555	0.54	0.868	0.92	0.869	0.593	0.248
IA-LM	0.93	0.935	0.854	0.625	0.203	–	–	–	–	–	0.74	0.897	1.14	0.463	0.121	–	0.899	0.884	0.38	0.0798
NCI-H1734	1.01	0.934	0.812	0.821	0.365	0.454	0.37	0.356	0.155	0.105	0.814	0.999	0.731	0.234	0.13	0.632	0.722	0.522	0.331	0.123
NCI-H2170	0.942	0.979	1.01	0.961	0.977	0.43	0.419	0.462	0.326	0.208	–	–	–	–	–	1.23	1.13	1.12	0.434	0.16
Calu-6	1	0.994	0.963	0.943	0.488	–	–	–	–	–	0.912	0.947	0.764	0.174	0.13	0.735	0.622	0.345	0.197	0.101
HCC-15	0.975	0.948	0.842	1.05	0.816	0.44	0.448	0.458	0.0952	0.0863	0.981	0.961	1	0.377	0.235	0.864	0.823	0.783	0.298	0.0811
NCI-H1395	1	0.846	0.647	0.838	0.68	0.477	0.435	0.446	0.361	0.27	–	–	–	–	–	–	–	–	–	–
NCI-H1648	1.02	0.85	1.64	0.718	0.815	–	–	–	–	–	–	–	–	–	–	–	–	–	–	–
NCI-H358	0.923	0.911	0.833	0.623	0.319	0.316	0.305	0.354	0.0576	0.0696	–	–	–	–	–	0.607	0.478	0.264	0.14	0.11
NCI-H1623	0.98	0.978	1.24	1.04	0.956	0.538	0.594	0.623	0.577	0.307	–	–	–	–	–	–	–	–	–	–
NCI-H1299	0.989	1.03	0.948	1.01	0.9	–	–	–	–	–	1	1.05	1	0.854	0.211	0.951	0.938	0.938	0.442	0.222
NCI-H522	0.951	0.894	0.861	0.876	0.904	0.58	0.618	0.573	0.62	0.448	–	–	–	–	–	–	–	–	–	–
NCI-H2342	1.02	1.08	1.06	0.857	0.954	0.653	0.508	0.574	0.714	0.566	–	–	–	–	–	–	–	–	–	–
NCI-H1793	0.949	0.795	0.859	0.929	0.986	0.366	0.242	0.368	0.344	0.169	–	–	–	–	–	–	–	–	–	–
SW 900	0.887	0.871	0.748	0.703	0.365	0.534	0.548	0.13	0.123	0.0977	–	–	–	–	–	–	–	–	–	–
NCI-H1703	0.955	0.846	0.858	0.72	0.542	–	–	–	–	–	0.261	0.319	0.236	0.174	0.117	0.636	0.597	0.339	0.101	0.0884
LK-2	1.03	1.01	1.17	0.932	1.11	0.416	0.282	0.514	0.131	0.149	–	–	–	–	–	0.193	0.221	0.208	0.262	0.203
